# Experiments:
# Assay type in all cases: in vivo, human
# [1] = Phase I dose-escalation trial, dose limiting toxicities of Coenzyme Q10 in combination with chemotherapy (Arm 2)
# Text: The clinical trial is a multicenter, open-label, non-randomized, dose-escalation study to examine the dose limiting toxicities (DLT) of Coenzyme Q10 administered as a 144-hour continuous intravenous (IV) infusion as monotherapy (treatment Arm 1) and in combination with chemotherapy (treatment Arm 2) in patients with solid tumors. A broad range of solid tumors has been evaluated, including prostate, colon, breast, lung and pancreatic tumors, as shown in Tables 1 and 2 below. Coenzyme Q10 was administered in three consecutive 48 hour doses or two consecutive 72 hour doses, depending on the dose level. Three standard weekly chemotherapy regimens of gemcitabine, 5-fluorouracil, or docetaxel were evaluated in combination with Coenzyme Q10. Eligible patients are 18 years of age or older, afflicted with solid tumors, and relapsed/refractory to standard therapy. 85 patients have been enrolled in the trial. The monotherapy arm received Coenzyme Q10 for 6 days in continuous infusion in 28 day cycles, and the combination arms (gemcitabine, 5-fluorouracil, or docetaxel) were primed for 3 weeks with Coenzyme Q10 before initiation of standard chemotherapy, followed by weekly dosing in a 6 week cycle.
# The study is a standard 3+3 dose escalation design with the dose escalated in successive cohorts of 3 to 6 patients each. […]
# [2] = Phase I trial, adverse events (CTCAE v4.02)
# Text: The study is a standard 3+3 dose escalation design with the dose escalated in successive cohorts of 3 to 6 patients each. Toxicity at each dose level is graded according to National Cancer Institute Common Terminology Criteria for Adverse Events (CTCAE v4.02). Safety oversight is provided by the Cohort Review Committee (CRC). If none of the 3 patients in a cohort experiences a DLT during Cycle 1, then 3 new patients may be entered at the next higher dose level following CRC review of safety and PK data from lower cohorts. The clinical trial is described in greater detail in WO2015/035094, which is incorporated by reference herein in its entirety.
# Four grade 3 events were reported. During the time period covered by Example 1, 1503 adverse events were reported. 75 events were reported as serious. Of the serious adverse events, 27 were not related, 38 were unlikely related, 8 were possibly related, one was probably related and, one was definitely related (activated partial thromboplastin time (APTT) prolonged).
# The table below contains the adverse events reported with a frequency of 4% or greater.
# [3] = Pharmacokinetics of Coenzyme Q10 in plasma during and after 144-hour continuous IV infusion; parameters: Coenzyme Q10 concentration in plasma, Mean ± SD: unit not given here
# Description: Pharmacokinetics of Coenzyme Q10 was measured in the patients at time zero and at several time points during and after the 144-hour continuous intravenous (IV) infusion with Coenzyme Q10.
# [4] = Grade 2, 3*, adverse events with frequency of 4% or greater
# [5] = time period covered by Example 1
structure (smiles),measurement,setting,value
COC1=C(OC)C(=O)C(C/C=C(\C)CC/C=C(\C)CC/C=C(\C)CC/C=C(\C)CC/C=C(\C)CC/C=C(\C)CC/C=C(\C)CC/C=C(\C)CC/C=C(\C)CCC=C(C)C)=C(C)C1=O [Coenzyme Q10],Dose Limiting Toxicity,"[1]; DL4 - 110 mg/kg with Gemcitabine 1,000 mg/m^2 (6 enrolled), two consecutive 72 hour infusions, cell wraps r34-r38: None to Date- need 3 more evaluable patients to determine MTD",None to Date-
same,Dose Limiting Toxicity,[1]; in vivo,None
same,"Anemia, Number of Occurrences","[2]; Grade 2, 3",38
same,"Anemia, Percentage of Occurrences","[2]; Grade 2, 3",(15%)
same,"Elevated AST, Number of Occurrences","[2]; Grade 2, 3",14
same,"Elevated AST, Percentage of Occurrences","[2]; Grade 2, 3",(6%)
same,"Fatigue, Number of Occurrences","[2]; Grade 2, 3",11
same,"Fatigue, Percentage of Occurrences","[2]; Grade 2, 3",(4%)
same,"Elevated PT/PTT/INR, Number of Occurrences",[2]; [4],67
same,"Elevated PT/PTT/INR, Percentage of Occurrences",[2]; [4],(26%)
same,"Thrombocytopenia, Number of Occurrences","[2]; Grade 2, 3, 4*",34
same,"Thrombocytopenia, Percentage of Occurrences","[2]; Grade 2, 3, 4*",(13%)
same,"Hypertriglyceridemia, Number of Occurrences","[2]; Grade 2, 4*",15
same,"Hypertriglyceridemia, Percentage of Occurrences","[2]; Grade 2, 4*",(6%)
same,Number of grade 3 PT/PTT/INR prolongation events reported,[2]; in vivo,Four
same,Most common related adverse events,[2]; mitigated after Vitamin K administration,grade 1-2 prothrombin time (PT)/partial thromboplastin time(PTT)/International Normalized Ratio (INR) prolongation
same,Serious adverse events not related,[2]; of 75 serious events,27
same,Serious adverse events possibly related,[2]; of 75 serious events,8
same,Serious adverse events probably related,[2]; of 75 serious events,one
same,Serious adverse events unlikely related,[2]; of 75 serious events,38
same,Serious adverse events definitely related,"[2]; of 75 serious events, activated partial thromboplastin time (APTT) prolonged",one
same,Number of adverse events reported,[2]; [5],1503
same,Number of events reported as serious,[2]; [5],75
same,"Coenzyme Q10 concentration in plasma, Mean ± SD","[3]; 220 mg/kg/week, Arm 2, n = 9 (footnote c), time 96 hr",348 ± 225^c
same,"Coenzyme Q10 concentration in plasma, Mean ± SD","[3]; 220 mg/kg/week, Arm 2, n = 9 (footnote c), time 148 hr",250 ± 251^c
same,"Coenzyme Q10 concentration in plasma, Mean ± SD","[3]; 220 mg/kg/week, Arm 2, n = 11 (footnote b), time 4 hr",158 ± 57^b
same,"Coenzyme Q10 concentration in plasma, Mean ± SD","[3]; 220 mg/kg/week, Arm 2, n = 11 (footnote b), time 140 hr",378 ± 244^b
same,"Coenzyme Q10 concentration in plasma, Mean ± SD","[3]; 220 mg/kg/week, Arm 2, n = 11 (footnote b), time 146 hr",282 ± 207^b
same,"Coenzyme Q10 concentration in plasma, Mean ± SD","[3]; 220 mg/kg/week, Arm 2, n = 12 (footnote a), time 1 hr",150 ± 54^a
same,"Coenzyme Q10 concentration in plasma, Mean ± SD","[3]; 220 mg/kg/week, Arm 2, n = 12 (footnote a), time 73 hr",227 ± 212^a
same,"Coenzyme Q10 concentration in plasma, Mean ± SD","[3]; 220 mg/kg/week, Arm 2, n = 12 (footnote a), time 74 hr",226 ± 193^a
same,"Coenzyme Q10 concentration in plasma, Mean ± SD","[3]; 220 mg/kg/week, Arm 2, n = 12 (footnote a), time 143.5 hr",363 ± 221^a
same,"Coenzyme Q10 concentration in plasma, Mean ± SD","[3]; 220 mg/kg/week, Arm 2, n = 13, time 0 hr",0
same,"Coenzyme Q10 concentration in plasma, Mean ± SD","[3]; 220 mg/kg/week, Arm 2, n = 13, time 2 hr",163 ± 66^
same,"Coenzyme Q10 concentration in plasma, Mean ± SD","[3]; 220 mg/kg/week, Arm 2, n = 13, time 24 hr",251 ± 155
same,"Coenzyme Q10 concentration in plasma, Mean ± SD","[3]; 220 mg/kg/week, Arm 2, n = 13, time 71.5 hr",255 ± 199
same,"Coenzyme Q10 concentration in plasma, Mean ± SD","[3]; 220 mg/kg/week, Arm 2, n = 13, time 142 hr",358 ± 214
same,"Coenzyme Q10 concentration in plasma, Mean ± SD","[3]; 274 mg/kg/week, Arm 1, n = 3 (so in the source), time 0 hr",0
same,"Coenzyme Q10 concentration in plasma, Mean ± SD","[3]; 274 mg/kg/week, Arm 1, n = 3 (so in the source), time 1 hr",173 ± 36
same,"Coenzyme Q10 concentration in plasma, Mean ± SD","[3]; 274 mg/kg/week, Arm 1, n = 3 (so in the source), time 2 hr",175 ± 42
same,"Coenzyme Q10 concentration in plasma, Mean ± SD","[3]; 274 mg/kg/week, Arm 1, n = 3 (so in the source), time 4 hr",185 ± 51

# — patent publication US20230274799A1, “SYSTEMS AND METHODS FOR PATIENT STRATIFICATION AND IDENTIFICATION OF POTENTIAL BIOMARKERS” (Berg LLC, priority 2016, published 2023)
